pIC50, pKi: −log10 of the molar value. In brackets after ≈: the same amount, converted by molar mass. Activity calls are given as the source filed them. No cut-off for these calls is given here.
Tests used:
Candida albicans [1] = assay: Inhibition of wild type Candida albicans Fructose-1,6-Bisphosphate Aldolase transfected in Escherichia coli BL21 (DE3) at 50 uM incubated for 3 mins in presence of NADH by spectrophotometric analysis relative to control
[2] = Inhibition of wild type Candida albicans Fructose-1,6-Bisphosphate Aldolase transfected in Escherichia coli BL21 (DE3) incubated for 3 mins in presence of NADH by spectrophotometric analysis
Candida albicans [3] = assay: Antifungal activity against fluconazole resistant Candida albicans 103 incubated for 48 hrs by CLSI based broth microdilution method; format: functional
Candida albicans [4] = assay: Antibiofilm activity against azole resistant Candida albicans 0304103 assessed as inhibition of biofilm formation by XTT assay; format: functional, organism-based; details: dose 0-64 µg/ml
Candida albicans [5] = assay: Antifungal activity against azole-resistant Candida albicans 030410 assessed as inhibition of fungal filamentation by measuring reduction in yeast-hypha transition at 32 ug/ml by microscopic analysis; format: functional, organism-based; details: dose 32.0 µg/ml
Candida albicans [6] = assay: Antifungal activity against fluconazole resistant Candida albicans 7781 incubated for 48 hrs by CLSI based broth microdilution method; format: functional
Candida albicans [7] = assay: Antifungal activity against Candida albicans SC5314 incubated for 48 hrs by CLSI based broth microdilution method; format: functional
Candida albicans [8] = assay: Antifungal activity against fluconazole resistant Candida albicans 904 incubated for 48 hrs by CLSI based broth microdilution method; format: functional
Candida albicans [9] = assay: Binding affinity to Candida albicans Fructose-1,6-Bisphosphate Aldolase assessed as ratio of kinact/Ki incubated for 12 to 40 mins by NADH-linked enzymatic assay; details: time 12-40 min
[10] = Cytotoxicity against human HaCaT cells; format: toxicity, cell-based
[11] = Binding affinity to Candida albicans Fructose-1,6-Bisphosphate Aldolase assessed as inhibition constant incubated for 12 to 40 mins by NADH-linked enzymatic assay
Candida albicans [12] = assay: Binding affinity to Candida albicans Fructose-1,6-Bisphosphate Aldolase assessed as Kinact incubated for 12 to 40 mins by NADH-linked enzymatic assay; details: time 12-40 min
Candida albicans [13] = assay: Inhibition of wild type Candida albicans Fructose-1,6-Bisphosphate Aldolase transfected in Escherichia coli BL21 (DE3) at 100 uM incubated for 3 mins in presence of NADH by spectrophotometric analysis relative to control

Compound	pIC50 [2]	MIC80 (Candida albicans [3]) [µg/mL]	MIC80 (Candida albicans [6]) [µg/mL]	MIC80 (Candida albicans [7]) [µg/mL]	MIC80 (Candida albicans [8]) [µg/mL]	further results
O=c1c2ccccc2sn1S(=O)(=O)c1ccccc1	< 4.30	–	–	–	–	inhibition (Candida albicans [1]): < 50%
O=c1c2ccccc2[se]n1-c1ccc(N2CCOCC2)cc1	6.89	–	–	–	–	–
O=C(c1ccccc1)c1ccc(-n2[se]c3ccccc3c2=O)cc1	7.51	4 (≈ 10.6 µM)	4 (≈ 10.6 µM)	4 (≈ 10.6 µM)	4 (≈ 10.6 µM)	Activity (Candida albicans [4]): Dose-Dependent Effect; Activity (Candida albicans [5]): Active
O=C(Cc1ccccc1)n1sc2ccccc2c1=O	6.31	–	–	–	–	–
O=c1c2ccccc2[se]n1-c1ccc(-c2ccccc2)cc1	7.22	64 (≈ 183 µM)	64 (≈ 183 µM)	32 (≈ 91.4 µM)	64 (≈ 183 µM)	–
N#Cc1ccc(-n2[se]c3ccccc3c2=O)cc1	7.41	16 (≈ 53.5 µM)	8 (≈ 26.7 µM)	8 (≈ 26.7 µM)	16 (≈ 53.5 µM)	–
O=C(NCc1ccccc1)n1[se]c2ccccc2c1=O	7.01	8 (≈ 24.2 µM)	8 (≈ 24.2 µM)	16 (≈ 48.3 µM)	16 (≈ 48.3 µM)	–
O=c1c2ccccc2[se]n1-c1ccc(-n2cncn2)cc1	7.42	8 (≈ 23.4 µM)	8 (≈ 23.4 µM)	8 (≈ 23.4 µM)	4 (≈ 11.7 µM)	Ratio (Candida albicans [9]): 10.4 M⁻¹ s⁻¹; pIC50 [10]: < 4.49; pKi [11]: 6.31; Kinact (Candida albicans [12]): 0.00506 s⁻¹
O=c1c2ccccc2[se]n1-c1nccs1	6.95	8 (≈ 28.4 µM)	8 (≈ 28.4 µM)	4 (≈ 14.2 µM)	4 (≈ 14.2 µM)	–
CCCCc1ccc(-n2[se]c3ccccc3c2=O)cc1	7.00	4 (≈ 12.1 µM)	4 (≈ 12.1 µM)	8 (≈ 24.2 µM)	8 (≈ 24.2 µM)	–
NC(=O)c1ccc(-n2[se]c3ccccc3c2=O)cc1	7.07	64 (≈ 202 µM)	64 (≈ 202 µM)	64 (≈ 202 µM)	64 (≈ 202 µM)	–
CC(=O)c1ccc(-n2[se]c3ccccc3c2=O)cc1	7.76	8 (≈ 25.3 µM)	8 (≈ 25.3 µM)	16 (≈ 50.6 µM)	16 (≈ 50.6 µM)	–
O=C1c2ccccc2CN1Cc1ccccc1	< 4.00	> 64	> 64	> 64	> 64	inhibition (Candida albicans [13]): < 50%
Nc1ccc(-n2[se]c3ccccc3c2=O)cc1	7.08	8 (≈ 27.7 µM)	8 (≈ 27.7 µM)	8 (≈ 27.7 µM)	8 (≈ 27.7 µM)	Ratio (Candida albicans [9]): 3560 M⁻¹ s⁻¹; pIC50 [10]: < 4.49; pKi [11]: 6.25; Kinact (Candida albicans [12]): 0.00199 s⁻¹
O=c1c2ccccc2sn1-c1ccccc1	6.62	–	–	–	–	pIC50 [10]: < 4.49
O=C(O)c1ccc(-n2[se]c3ccccc3c2=O)cc1	7.35	64 (≈ 201 µM)	64 (≈ 201 µM)	64 (≈ 201 µM)	64 (≈ 201 µM)	–
CC(C)C[C@H](NC(=O)[C@H](Cc1ccccc1)NC(=O)c1cnccn1)B(O)O	–	–	–	–	–	inhibition (Candida albicans [1]): -0.52%
O=C(NC1CCCCC1)n1sc2ccccc2c1=O	5.95	–	–	–	–	–
O=c1c2ccccc2[se]n1-c1cccc(C(F)(F)F)c1	7.08	4 (≈ 11.7 µM)	4 (≈ 11.7 µM)	4 (≈ 11.7 µM)	2 (≈ 5.84 µM)	pIC50 [10]: < 4.49
CCN(CC)C(=S)SSC(=S)N(CC)CC	–	–	–	–	–	inhibition (Candida albicans [1]): 83%
O=C(NCc1ccccc1)N1Cc2ccccc2C1=O	< 4.00	> 64	> 64	> 64	> 64	inhibition (Candida albicans [13]): < 50%
O=c1c2ccccc2[se]n1-c1ccc(F)cc1F	7.08	4 (≈ 12.9 µM)	2 (≈ 6.45 µM)	4 (≈ 12.9 µM)	4 (≈ 12.9 µM)	pIC50 [10]: < 4.49
Cc1ccc(-n2[se]c3ccccc3c2=O)cc1	7.88	2 (≈ 6.94 µM)	2 (≈ 6.94 µM)	4 (≈ 13.9 µM)	4 (≈ 13.9 µM)	pIC50 [10]: < 4.49
C[C@@H]1O[C@@H]1P(=O)(O)O	–	–	–	–	–	inhibition (Candida albicans [1]): 0.32%

— ChEMBL document CHEMBL5042539, “Structure-Guided Discovery of the Novel Covalent Allosteric Site and Covalent Inhibitors of Fructose-1,6-Bisphosphate Aldolase to Overcome the Azole Resistance of Candidiasis” (J Med Chem, 2022)
